The target of one experiment is menin-MLL interaction (Homo sapiens (Human), UniProt O00255). The experiment in a line: Fluorescence polarization (FP) competition assay with fluorescein-labeled MLL peptide.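 Further: Read-out is fluorescence anisotropy of fluorescein-labeled MLL peptide bound to menin, inhibitors displace the peptide and lower anisotropy.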 Format: binding. On the technique in general: Fluorescence polarisation rises when a labelled molecule tumbles more slowly, as on binding a larger partner.
The subject of experiment [1] is human leukemia cell lines with MLL translocations (MV4;11, KOPN-8, THP-1, MonoMac6). In words: MTT viability assay in MLL leukemia cell lines. The format is cell-based. The following applies: in words.
Experiment [2] concerns Hoxa9 and Meis1 expression. In words: qRT-PCR of MLL downstream targets in THP-1 cells.
In experiment [3] the test system is non-MLL leukemia cell lines (Kasumi-1, ME-1). In words: MTT viability assay in non-MLL leukemia cell lines. The format is cell-based, human. The note with it: Kasumi-1 (AML1-ETO), ME-1 (CBFβ-SMMHC).
The mark [4] stands for this setting: Table 1, NA = no activity, NS = no saturation on titration curve, read-out: IC50 in FP assay with FLSN-MLL.
Setting [5] is: Table 3, NA = no activity, read-out: IC50 in FP assay with FLSN-MLL.
[6] abbreviates: Table 4, NA = no activity, NS not defined in this table, read-out: IC50 in FP assay with FLSN-MLL.
Setting [7] is: Table 2, FP assay, read-out: IC50.
[8] abbreviates: Table 1, NA = no activity, NS = no saturation on titration curve.

Like-named read-outs stand apart in the source and are kept apart here.

As a reminder, the IC50 is the concentration at which inhibition is half-maximal.

menin-MLL interaction, sequence (O00255 whole entry): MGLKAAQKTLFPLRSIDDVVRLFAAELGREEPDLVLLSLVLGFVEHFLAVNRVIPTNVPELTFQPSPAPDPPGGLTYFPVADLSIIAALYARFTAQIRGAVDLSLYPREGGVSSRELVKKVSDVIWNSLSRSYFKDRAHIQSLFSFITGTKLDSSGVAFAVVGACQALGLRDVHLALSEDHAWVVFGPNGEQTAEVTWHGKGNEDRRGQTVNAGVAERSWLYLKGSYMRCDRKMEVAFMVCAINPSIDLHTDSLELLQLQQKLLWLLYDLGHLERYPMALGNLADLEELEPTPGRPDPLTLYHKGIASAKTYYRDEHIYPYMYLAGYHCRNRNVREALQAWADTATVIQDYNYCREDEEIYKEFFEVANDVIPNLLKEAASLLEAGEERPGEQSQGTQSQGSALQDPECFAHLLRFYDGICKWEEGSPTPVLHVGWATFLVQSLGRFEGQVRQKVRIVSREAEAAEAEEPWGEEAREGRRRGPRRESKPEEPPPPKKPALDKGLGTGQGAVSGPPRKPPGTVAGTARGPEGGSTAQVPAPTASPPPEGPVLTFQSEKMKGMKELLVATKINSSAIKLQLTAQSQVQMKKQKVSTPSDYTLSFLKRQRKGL

As to `c1csc(N2CCN(c3ncnc4sccc34)CC2)n1` [Compound 31], the IC50 at menin-MLL interaction (setting [4]) amounted to 29.5 µM.
As for `O=C1CC(c2ccc3c(c2)OCO3)CC2=C1C(c1cccnc1)Nc1ccccc1N2` (stereo not drawn) [Compound 36], the concentration for half-maximal inhibition (IC50) at menin-MLL interaction (setting [5]) is 63 µM.
Still for that read-out and setting: for `COc1ccc(C2CC(=O)C3=C(C2)Nc2ccccc2NC3c2cccnc2)cc1OC` (stereo not drawn) [Compound 37] the value was 100 µM.
For `NC(=O)Cc1nc(-c2cccc(Cl)c2)cs1` [Compound 54], at menin-MLL interaction (setting [6]), the IC50 is 137 µM.
As to `CCc1cc2c(NCCN(CC)Cc3ccccc3)ncnc2s1` [Compound 83], the IC50 at menin-MLL interaction (setting [7]) came out at 27 µM.
On to `CC(=O)N1c2ccccc2NC2=C(C(=O)CC(c3ccc(C)cc3)C2)C1c1cccnc1` (stereo not drawn) [Compound 84], for which the half-inhibitory concentration (IC50) on menin-MLL interaction (setting [5]) was found to be 100 µM.
For `CCOC(=O)c1sc2nc(CN3CCOCC3)nc(N3CCN(c4nccs4)CC3)c2c1C` [Compound 12], the “IC50 in FP assay with FLSN-MLL” value at menin-MLL interaction (setting [8]) is “NA up to 100 μM”.
For `Cc1sc2ncnc(NC3CCN(Cc4ccccc4)CC3)c2c1C` [Compound 77], on menin-MLL interaction (setting [7]), the IC50 is 8.7 µM.
`CC(=O)N1c2ccccc2NC2=C(C(=O)CC(c3ccc(Cl)c(Cl)c3)C2)C1c1cccnc1` (stereo not drawn) [Compound 86]: the “growth inhibition of MLL leukemia cells” value in experiment [1] is “strongly inhibited growth”. Besides, the IC50 at menin-MLL interaction (FP competition, read-out: IC50 for inhibition of the menin-MLL interaction) was 7.4 µM; at menin-MLL interaction (setting [5]), 7.4 µM. Further, the “expression level of Hoxa9 and Meis1” value in experiment [2] is “Downregulation of Hoxa9 and Meis1 expression”. For the same compound, the “effect on growth of non-MLL leukemia cell lines” value in experiment [3] was “no or very limited effect on cell growth”.
`CCc1cc2c(N3CCN(C)CC3)ncnc2s1` [Compound 7]: at menin-MLL interaction, the IC50 turned out to be 170 µM.
Regarding `O=C(Cc1nc(-c2ccccc2)cs1)Nc1ccccc1` [Compound 48], on menin-MLL interaction (Table 4, at 0.5 mM), the “D in FP assay” value was 30%.
`CC1CCc2c(sc3ncnc(NC4CCN(Cc5ccccc5)CC4)c23)C1` (stereo not drawn) [Compound 79]: the IC50 on menin-MLL interaction (setting [7]) came out at 20 µM.
Take `Cc1cc(C)c(-c2csc(CC(N)=O)n2)cc1C` [Compound 57]: the IC50 at menin-MLL interaction (setting [6]) amounted to 1200 µM.
Turning to `Cc1cc2c(N3CCN(c4ccccc4)CC3)ncnc2s1` [Compound 29], the “IC50 in FP assay with FLSN-MLL” value on menin-MLL interaction (setting [8]) was “NA up to 250 μM”.
Turning to `CCN(CC)Cc1nc(N2CCN(c3nccs3)CC2)c2c(C)c(C)sc2n1` [Compound 17], the “IC50 in FP assay with FLSN-MLL” value at menin-MLL interaction (setting [8]) is “NA up to 250 uM”.
Take `O=C(Cc1nc(-c2ccc(F)cc2)cs1)N1CCOCC1` [Compound 52]: the IC50 on menin-MLL interaction (setting [6]) worked out at 107 µM.
In the case of `c1ccc(-c2cc3c(N4CCN(c5nccs5)CC4)ncnc3s2)cc1` [Compound 21], the IC50 at menin-MLL interaction (setting [4]) came to 50 µM.
In the case of `CC1(C)CN=C(N2CCN(c3ncnc4sc(Br)cc34)CC2)S1` [Compound 72], the IC50 at menin-MLL interaction (setting [7]) was found to be 4.8 µM.
As to `CN1CCN(c2ncnc3oc(-c4ccccc4)c(-c4ccccc4)c23)CC1` [Compound 11], the half-maximal inhibitory concentration (IC50) at menin-MLL interaction (setting [4]) amounted to 500 µM.
Take `c1ccc(CN2CCC(Nc3ncnc4sc5c(c34)CCC5)CC2)cc1` [Compound 78]: the IC50 on menin-MLL interaction (setting [7]) stood at 12 µM.
For `c1cnc(N2CCN(c3ncnc4sccc34)CC2)nc1` [Compound 24], on menin-MLL interaction (setting [8]), the “IC50 in FP assay with FLSN-MLL” value is “NA up to 1 mM”.
Regarding `CCc1cc2c(N3CCN(c4ncccn4)CC3)ncnc2s1` [Compound 10], the IC50 at menin-MLL interaction (setting [4]) worked out at 250 µM.
Regarding `COC(=O)Cc1nc(C2CCCCC2)cs1` [Compound 51], the IC50 on menin-MLL interaction (setting [6]) is 1900 µM.
On to `COc1ccc(CN2CCCN(c3ncnc4sc(C)c(C)c34)CC2)cc1` [Compound 73], for which, at menin-MLL interaction (setting [7]), the IC50 was determined as 20 µM.
Take `COc1ccc(C2CC(=O)C3=C(C2)Nc2ccccc2NC3c2ccccc2C)cc1OC` (stereo not drawn) [Compound 38]: the IC50 on menin-MLL interaction (setting [5]) is 115 µM.
`CCc1cc2c(N3CCN(Cc4ccc(Cl)cc4)CC3)ncnc2s1` [Compound 60]: the IC50 at menin-MLL interaction (setting [7]) amounted to 30 µM.
For `CCc1cc2c(N3CCN(c4ccccn4)CC3)ncnc2s1` [Compound 8], on menin-MLL interaction (setting [4]), the half-inhibitory concentration (IC50) was found to be 60 µM.
With `COc1ccc(C2CC(=O)C3=C(C2)Nc2ccccc2N(C(C)=O)C3c2cccnc2)cc1` (stereo not drawn) [Compound 85], the IC50 on menin-MLL interaction (setting [5]) came to 72 µM.
As to `CN1CCCN(c2ncnc3sccc23)CC1` [Compound 27], the IC50 on menin-MLL interaction (setting [4]) was found to be 350 µM.
`NC(=O)Cc1nc(-c2ccc(Br)cc2)cs1` [Compound 49]: the “D in FP assay” value on menin-MLL interaction (Table 4, at 1.0 mM) is recorded as 10%.
For the compound `CCc1cc2c(N3CCCN(C4=NCC(C)(C)S4)CC3)ncnc2s1` [Compound 76], the IC50 on menin-MLL interaction (setting [7]) turned out to be 6.3 µM.
On to `Cc1ccc(-c2csc(CC(N)=O)n2)cc1C` [Compound 56], for which, on menin-MLL interaction (Table 4, at 0.5 mM), the “D in FP assay” value is 30%.

Source of the values: US8993552B2, “Compositions and methods for treatment of leukemia” (The Regents of The University of Michigan, priority 2009, dated 2015).
